# Biological target: T1, ERα (Homo sapiens, UniProt P03372)
# T1 construct: host or cells: MCF7
# T1 sequence (P03372 1-595): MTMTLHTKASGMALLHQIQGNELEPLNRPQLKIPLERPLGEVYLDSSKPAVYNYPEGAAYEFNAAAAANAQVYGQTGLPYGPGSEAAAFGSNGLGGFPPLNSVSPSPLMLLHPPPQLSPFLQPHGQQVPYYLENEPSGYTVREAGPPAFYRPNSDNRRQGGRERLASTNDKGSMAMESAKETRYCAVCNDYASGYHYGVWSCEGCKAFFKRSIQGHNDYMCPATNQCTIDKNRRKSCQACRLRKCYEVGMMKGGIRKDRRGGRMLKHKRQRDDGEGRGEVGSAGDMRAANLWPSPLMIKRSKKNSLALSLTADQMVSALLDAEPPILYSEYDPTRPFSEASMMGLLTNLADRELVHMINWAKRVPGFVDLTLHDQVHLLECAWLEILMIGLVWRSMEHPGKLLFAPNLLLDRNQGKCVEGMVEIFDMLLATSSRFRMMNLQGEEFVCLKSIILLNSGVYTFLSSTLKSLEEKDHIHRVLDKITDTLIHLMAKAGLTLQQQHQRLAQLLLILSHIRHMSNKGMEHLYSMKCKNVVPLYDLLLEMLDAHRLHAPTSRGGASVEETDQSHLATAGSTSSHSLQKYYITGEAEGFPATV
# Experiment: Estrogen receptor degradation activity: breast cancer cell ERα in cell western assay
# Format: cell-based
# Conditions: MCF7 cells, 4 hours, relative to fulvestrant 0.1 μM positive control
# Procedure: Test: Estrogen Receptor Degradation Activity Said test involves measuring the in vitro degradation activity of the compounds of the Table 1a. The measurements of the degradation activities were made using a breast cancer cell ERα in cell western assay as described hereunder. MCF7 cells (ATCC) were seeded in 384 wells microplate (collagen coated) at a concentration of 10000 cells/30 μL per well in red phenol free MEM alpha medium (invitrogen) containing 5% charcoal dextran striped FBS. The following day, 9 points serial 1:5 dilution of each compound was added to the cells in 2.5p L at final concentrations ranging from 0.3-0.0000018 μM (in table 2), or 0.1 μM for fulvestrant (using as positive control). At 4 hours post compound addition the cells were fixed by adding 25 μL of formalin (final concentration 5% formalin containing 0.1% triton) for 10 minutes at room temperature and then washed twice with PBS. Then, 50 μL of LI-COR blocking buffer containing 0.1% Triton was added to plate for 30 minutes at room temperature. LI-COR blocking buffer was removed and cells were incubated overnight at cold room with 50 μL anti-ER rabbit monoclonal antibody (Thermo scientific MA1-39540) diluted at 1:1000 in LI-COR blocking buffer containing 0.1% tween-20. Wells which were treated with blocking buffer but no antibody were used as background control. Wells were washed twice with PBS (0.1% tween-20) and incubated at 37° C. for 60 minutes in LI-COR (0.1% tween-20) containing goat anti-rabbit antibody Alexa 488 (1:1000) and Syto-64 a DNA dye (2 μM final concentration). Cells were then washed 3 times in PBS and scanned in ACUMEN explorer (TTP-Labtech). Integrated intensities in the green fluorescence and red fluorescence were measured to determine the levels of ERα and DNA respectively. The degradation activity with respect to estrogen receptors in this test is given by the concentration which degrades 50% of the estrogen receptor (or IC50) in nM. The % of ERα levels decrease were determined as follows: % inhibition=100*(1−(sample−fulvestrant: DMSO−fulvestrant)).
row,SMILES,% Degradation At 0.3 μM
1,"Cc1cccc(F)c1C1=C(c2ccc(CC3CN(CCCF)C3)cc2)c2ccc(C(=O)O)cc2CCC1.Cl [Compound 41, 8-(2-fluoro-6-methylphenyl)-9-(4-((1-(3-fluoropropyl)azetidin-3-yl)methyl)phenyl)-6,7-dihydro-5H-benzo[7]annulene-3-carboxylic acid, hydrochloride]",91%
2,"O=C(O)c1ccc2c(c1)CCCC(c1cccc3c1CCCC3)=C2c1ccc(CC2CN(CCCF)C2)cc1 [Compound 2, 9-(4-((1-(3-fluoropropyl)azetidin-3-yl)methyl)phenyl)-8-(5,6,7,8-tetrahydronaphthalen-1-yl)-6,7-dihydro-5H-benzo[7]annulene-3-carboxylic acid]",86%
3,"COc1cccc(C2=C(c3ccc(CC4CN(CCCF)C4)cc3)c3ccc(C(=O)O)cc3CCC2)c1OC [Compound 46, 8-(2,3-dimethoxyphenyl)-9-(4-((1-(3-fluoropropyl)azetidin-3-yl)methyl)phenyl)-6,7-dihydro-5H-benzo[7]annulene-3-carboxylic acid]",93%
4,"O=C(O)c1ccc2c(c1)CCCC(C1CCC(CO)C1)=C2c1ccc(CC2CN(CCCF)C2)cc1 (centres unmarked) [Compound 3, 9-(4-((1-(3-fluoropropyl)azetidin-3-yl)methyl)phenyl)-8-(3-(hydroxymethyl)cyclopentyl)-6,7-dihydro-5H-benzo[7]annulene-3-carboxylic acid]",77%
5,"Cc1cccc(C(F)(F)F)c1C1=C(c2ccc(CC3CN(CCCF)C3)cc2)c2ccc(C(=O)O)cc2CCC1 [Compound 33, 9-(4-((1-(3-fluoropropyl)azetidin-3-yl)methyl)phenyl)-8-(2-methyl-6-(trifluoromethyl)phenyl)-6,7-dihydro-5H-benzo[7]annulene-3-carboxylic acid]",91%
6,"O=C(O)c1ccc2c(c1)CCCC(c1ccc(F)c(O)c1F)=C2c1ccc(CC2CN(CCCF)C2)cc1 [Compound 47, 8-(2,4-difluoro-3-hydroxyphenyl)-9-(4-((1-(3-fluoropropyl)azetidin-3-yl)methyl)phenyl)-6,7-dihydro-5H-benzo[7]annulene-3-carboxylic acid]",100%
7,"Cc1c(OC(F)(F)F)cccc1C1=C(c2ccc(CC3CN(CCCF)C3)cc2)c2ccc(C(=O)O)cc2CCC1 [Compound 6, 9-(4-((1-(3-fluoropropyl)azetidin-3-yl)methyl)phenyl)-8-(2-methyl-3-(trifluoromethoxy)phenyl)-6,7-dihydro-5H-benzo[7]annulene-3-carboxylic acid]",90%
8,"Cc1cc(C2=C(c3ccc(CC4CN(CCCF)C4)cc3)c3ccc(C(=O)O)cc3CCC2)cc(C(F)(F)F)c1.Cl [Compound 34, 9-(4-((1-(3-fluoropropyl)azetidin-3-yl)methyl)phenyl)-8-(3-methyl-5-(trifluoromethyl)phenyl)-6,7-dihydro-5H-benzo[7]annulene-3-carboxylic acid, hydrochloride]",90%
9,"COc1cccc(OC)c1C1=C(c2ccc(CC3CN(CCCF)C3)cc2)c2ccc(C(=O)O)cc2CCC1.Cl [Compound 51, 8-(2,6-dimethoxyphenyl)-9-(4-((1-(3-fluoropropyl)azetidin-3-yl)methyl)phenyl)-6,7-dihydro-5H-benzo[7]annulene-3-carboxylic acid, hydrochloride]",92%
10,"COc1cccc(C2=C(c3ccc(CC4CN(CCCF)C4)cc3)c3ccc(C(=O)O)cc3CCC2)c1C(F)(F)F [Compound 11, 9-(4-((1-(3-fluoropropyl)azetidin-3-yl)methyl)phenyl)-8-(3-methoxy-2-(trifluoromethyl)phenyl)-6,7-dihydro-5H-benzo[7]annulene-3-carboxylic acid]",86%
11,"O=C(O)c1ccc2c(c1)CCCC(c1ccccc1OC(F)(F)F)=C2c1ccc(CC2CN(CCCF)C2)cc1 [Compound 30, 9-(4-((1-(3-fluoropropyl)azetidin-3-yl)methyl)phenyl)-8-(2-(trifluoromethoxy)phenyl)-6,7-dihydro-5H-benzo[7]annulene-3-carboxylic acid]",92%
12,"O=C(O)c1ccc2c(c1)CCCC(C1CC(CO)C1)=C2c1ccc(CC2CN(CCCF)C2)cc1 (centres unmarked) [Compound 21, 9-(4-((1-(3-fluoropropyl)azetidin-3-yl)methyl)phenyl)-8-(3-(hydroxymethyl)cyclobutyl)-6,7-dihydro-5H-benzo[7]annulene-3-carboxylic acid]",100%

# The remaining lines, values ahead:
row,% Degradation At 0.3 μM,SMILES
1,96%,"COc1ccc(C2=C(c3ccc(CC4CN(CCCF)C4)cc3)c3ccc(C(=O)O)cc3CCC2)cc1OC [Compound 71, 8-(3,4-dimethoxyphenyl)-9-(4-((1-(3-fluoropropyl)azetidin-3-yl)methyl)phenyl)-6,7-dihydro-5H-benzo[7]annulene-3-carboxylic acid]"
2,95%,"O=C(O)c1ccc2c(c1)CCCC(c1cccc(C(F)(F)F)c1C(F)(F)F)=C2c1ccc(CC2CN(CCCF)C2)cc1 [Compound 59, 8-(2,3-bis(trifluoromethyl)phenyl)-9-(4-((1-(3-fluoropropyl)azetidin-3-yl)methyl)phenyl)-6,7-dihydro-5H-benzo[7]annulene-3-carboxylic acid]"
3,100%,"Cc1c(C2=C(c3ccc(CC4CN(CCCF)C4)cc3)c3ccc(C(=O)O)cc3CCC2)ccc(C(F)(F)F)c1F.Cl [Compound 64, 8-(3-fluoro-2-methyl-4-(trifluoromethyl)phenyl)-9-(4-((1-(3-fluoropropyl)azetidin-3-yl)methyl)phenyl)-6,7-dihydro-5H-benzo[7]annulene-3-carboxylic acid, hydrochloride]"
4,92%,"CCc1cccc(C2=C(c3ccc(CC4CN(CCCF)C4)cc3)c3ccc(C(=O)O)cc3CCC2)c1C(F)(F)F [Compound 68, 8-(3-ethyl-2-(trifluoromethyl)phenyl)-9-(4-((1-(3-fluoropropyl)azetidin-3-yl)methyl)phenyl)-6,7-dihydro-5H-benzo[7]annulene-3-carboxylic acid]"
5,95%,"COc1ccc(C(F)F)c(C2=C(c3ccc(CC4CN(CCCF)C4)cc3)c3ccc(C(=O)O)cc3CCC2)c1.Cl [Compound 60, 8-(2-(difluoromethyl)-5-methoxyphenyl)-9-(4-((1-(3-fluoropropyl)azetidin-3-yl)methyl)phenyl)-6,7-dihydro-5H-benzo[7]annulene-3-carboxylic acid, hydrochloride]"
6,95%,"COc1cc(C)c(C2=C(c3ccc(CC4CN(CCCF)C4)cc3)c3ccc(C(=O)O)cc3CCC2)c(C)c1 [Compound 55, 9-(4-((1-(3-fluoropropyl)azetidin-3-yl)methyl)phenyl)-8-(4-methoxy-2,6-dimethylphenyl)-6,7-dihydro-5H-benzo[7]annulene-3-carboxylic acid]"
7,91%,"COc1cc(C)cc(C)c1C1=C(c2ccc(CC3CN(CCCF)C3)cc2)c2ccc(C(=O)O)cc2CCC1 [Compound 72, 9-(4-((1-(3-fluoropropyl)azetidin-3-yl)methyl)phenyl)-8-(2-methoxy-4,6-dimethylphenyl)-6,7-dihydro-5H-benzo[7]annulene-3-carboxylic acid]"
8,92%,"CCc1ccc(C2=C(c3ccc(CC4CN(CCCF)C4)cc3)c3ccc(C(=O)O)cc3CCC2)c(C(F)(F)F)c1 [Compound 70, 8-(4-ethyl-2-(trifluoromethyl)phenyl)-9-(4-((1-(3-fluoropropyl)azetidin-3-yl)methyl)phenyl)-6,7-dihydro-5H-benzo[7]annulene-3-carboxylic acid]"
